Reference: patent EP4603105A1, “PHARMACEUTICAL COMPOSITION CONTAINING CYCLIC COMPOUND HAVING SELECTIVE KRAS INHIBITORY EFFECT AGAINST HRAS AND NRAS” (CHUGAI SEIYAKU KABUSHIKI KAISHA, priority 2022, dated 2024)
pIC50: −log10 of the molar value. *1 amine or outer side, *2 acyl side, *3 side chain or, on linkers, in order; H or OH if unused. Where a SMILES comes first, the peptide text is derived from it. Bridges are numbered along the chain shown (N, C = ends). [ ]: non-standard residue; d: D form. The star is where a group is joined. hPhe(3-Cl-4-CF3) = N[C@@H](CCc1ccc(C(F)(F)F)c(Cl)c1)C(=O)O; X42 = Cc1ccc(C[C@@H](C(=O)[*:2])N(CCC(F)(F)F)[*:1])cc1; X28 = Cc1ccc(C[C@@H](C(=O)[*:2])N(CC2CCCCC2)[*:1])cc1; X32 = Cc1ccc(C[C@@H](C(=O)[*:2])N(CC2CCCC2)[*:1])cc1; NMePhe(4-CF3) = CN[C@@H](Cc1ccc(C(F)(F)F)cc1)C(=O)O; X37 = Cc1ccc(C[C@@H](C(=O)[*:2])N(CCC(C)C)[*:1])cc1; X44 = Cc1ccc(C[C@@H](C(=O)[*:2])N(CC2CCC2)[*:1])cc1; X27 = COCCCN([C@@H](Cc1ccc(C)cc1)C(=O)[*:2])[*:1]; X46 = C=CCCN([C@@H](Cc1ccc(C)cc1)C(=O)[*:2])[*:1]; X14 = COCCN([C@@H](Cc1ccc(C)cc1)C(=O)[*:2])[*:1]; NPrPhe(4-Me) = CCCN[C@@H](Cc1ccc(C)cc1)C(=O)O; NMeGly(cPent) = CN[C@H](C(=O)O)C1CCCC1; NMeD = CN[C@@H](CC(=O)O)C(=O)O; NMeL = CN[C@@H](CC(C)C)C(=O)O; Morpholide = C1CN(*)CCO1; NMeA = CN[C@@H](C)C(=O)O; Ac5c = NC1(C(=O)O)CCCC1; Aze = O=C(O)[C@@H]1CCN1; NEtG = CCNCC(=O)O; Sar = CNCC(=O)O

Assays:
HRAS wild-type protein = HRAS wild-type protein (Homo sapiens, UniProt P01112); test: Binding to HRAS by surface plasmon resonance (SPR), KD and KD ratio to KRAS; conditions: ratio of KD for HRAS wild-type protein to KD for KRAS
Procedure, shortened: (§1)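 GDP-bound biotin-Avi RAS captured at ~100–300 RU, 30°C, pH 7.4 HBS containing 10 µM GDP, 10 mM MgCl2, 1 mM DTT, 0.01% Tween 20 and 4% DMSO. KD by 1:1 fitting.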

[1] = tested on: human lung cancer strain NCI-H441; assay type: cell-based
Procedure, shortened: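 Readout: […] after the ATP-based reagent. Compound: serial dilutions in dimethyl sulfoxide.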

[2] = target: GDP-bound NRAS wild-type protein (Homo sapiens, UniProt P01111); test: Binding to NRAS by surface plasmon resonance (SPR), KD and KD ratio to KRAS; conditions: ratio of KD for GDP-bound NRAS wild-type protein to KD for KRAS
Procedure, shortened: as §1

Sequence of GDP-bound NRAS wild-type protein (P01111 whole entry): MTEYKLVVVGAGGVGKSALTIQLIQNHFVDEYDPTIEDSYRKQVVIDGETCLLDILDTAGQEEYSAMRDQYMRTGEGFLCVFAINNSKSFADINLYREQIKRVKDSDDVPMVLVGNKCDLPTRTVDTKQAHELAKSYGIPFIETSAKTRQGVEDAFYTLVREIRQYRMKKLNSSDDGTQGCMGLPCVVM
Sequence of HRAS wild-type protein (P01112 whole entry): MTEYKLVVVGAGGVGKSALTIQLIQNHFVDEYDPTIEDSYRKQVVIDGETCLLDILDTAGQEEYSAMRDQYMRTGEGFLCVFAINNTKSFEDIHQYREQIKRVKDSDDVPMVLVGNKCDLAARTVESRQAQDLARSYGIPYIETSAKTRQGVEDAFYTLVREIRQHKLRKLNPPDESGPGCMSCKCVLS

| SMILES | pIC50 [1] | HRAS /KRAS (HRAS wild-type protein) | NRAS /KRAS [2] |
| --- | --- | --- | --- |
| CC[C@H](C)[C@@H]1NC(=O)[C@H](CC(C)C)N(C)C(=O)C[C@@H](C(=O)N2CCOCC2)N(C)C(=O)[C@H](C2CCCC2)N(C)C(=O)C2(CCCC2)NC(=O)[C@@H]2CCCN2C(=O)[C@H](CCc2ccc(C(F)(F)F)c(Cl)c2)NC(=O)CN(C)C(=O)[C@H](Cc2ccc(C(F)(F)F)cc2)N(C)C(=O)CN(C)C(=O)CN(C)C1=O [PP0076] ([NMeL]I[Sar][Sar][NMePhe(4-CF3)][Sar][hPhe(3-Cl-4-CF3)]P[Ac5c][NMeGly(cPent)][NMeD]-Morpholide; lactam N-11) | 7.96 | C (A compound having a KD ratio of 0.1 or more and less than 3 is denoted as C) | C (A compound having a KD ratio of 0.1 or more and less than 3 is denoted as C) |
| CC[C@H](C)[C@@H]1NC(=O)[C@H](CC(C)C)N(C)C(=O)C[C@@H](C(=O)N2CCOCC2)N(C)C(=O)[C@H](C2CCCC2)N(C)C(=O)C2(CCCC2)NC(=O)[C@@H]2CCCN2C(=O)[C@H](CCc2ccc(C(F)(F)F)c(Cl)c2)NC(=O)CN(C)C(=O)[C@H](Cc2ccc(C)cc2)N(CC2CCCC2)C(=O)[C@@H]2CCN2C(=O)[C@H](C)N(C)C1=O [PP0084] ([NMeL]I[NMeA][Aze][X32][Sar][hPhe(3-Cl-4-CF3)]P[Ac5c][NMeGly(cPent)][NMeD]-Morpholide; lactam N-11) | 7.30 | B (a compound having 3 or more and less than 10 is denoted as B) | C (A compound having a KD ratio of 0.1 or more and less than 3 is denoted as C) |
| CC[C@H](C)[C@@H]1NC(=O)[C@H](CC(C)C)N(C)C(=O)C[C@@H](C(=O)N2CCOCC2)N(C)C(=O)[C@H](C2CCCC2)N(C)C(=O)C2(CCCC2)NC(=O)[C@@H]2CCCN2C(=O)[C@H](CCc2ccc(C(F)(F)F)c(Cl)c2)NC(=O)CN(C)C(=O)[C@H](Cc2ccc(C)cc2)N(CC2CCCCC2)C(=O)[C@@H]2CCN2C(=O)[C@H](C)N(C)C1=O [PP0085] ([NMeL]I[NMeA][Aze][X28][Sar][hPhe(3-Cl-4-CF3)]P[Ac5c][NMeGly(cPent)][NMeD]-Morpholide; lactam N-11) | 6.96 | C (A compound having a KD ratio of 0.1 or more and less than 3 is denoted as C) | C (A compound having a KD ratio of 0.1 or more and less than 3 is denoted as C) |
| CC[C@H](C)[C@@H]1NC(=O)[C@H](CC(C)C)N(C)C(=O)C[C@@H](C(=O)N2CCOCC2)N(C)C(=O)[C@H](C2CCCC2)N(C)C(=O)C2(CCCC2)NC(=O)[C@@H]2CCCN2C(=O)[C@H](CCc2ccc(C(F)(F)F)c(Cl)c2)NC(=O)CN(C)C(=O)[C@H](Cc2ccc(C)cc2)N(CCC(C)C)C(=O)[C@@H]2CCN2C(=O)[C@H](C)N(C)C1=O [PP0086] ([NMeL]I[NMeA][Aze][X37][Sar][hPhe(3-Cl-4-CF3)]P[Ac5c][NMeGly(cPent)][NMeD]-Morpholide; lactam N-11) | 8.19 | B (a compound having 3 or more and less than 10 is denoted as B) | C (A compound having a KD ratio of 0.1 or more and less than 3 is denoted as C) |
| C=CCCN1C(=O)[C@@H]2CCN2C(=O)[C@H](C)N(C)C(=O)[C@H]([C@@H](C)CC)NC(=O)[C@H](CC(C)C)N(C)C(=O)C[C@@H](C(=O)N2CCOCC2)N(C)C(=O)[C@H](C2CCCC2)N(C)C(=O)C2(CCCC2)NC(=O)[C@@H]2CCCN2C(=O)[C@H](CCc2ccc(C(F)(F)F)c(Cl)c2)NC(=O)CN(C)C(=O)[C@@H]1Cc1ccc(C)cc1 [PP0089] ([NMeL]I[NMeA][Aze][X46][Sar][hPhe(3-Cl-4-CF3)]P[Ac5c][NMeGly(cPent)][NMeD]-Morpholide; lactam N-11) | 8.26 | B (a compound having 3 or more and less than 10 is denoted as B) | C (A compound having a KD ratio of 0.1 or more and less than 3 is denoted as C) |
| CC[C@H](C)[C@@H]1NC(=O)[C@H](CC(C)C)N(C)C(=O)C[C@@H](C(=O)N2CCOCC2)N(C)C(=O)[C@H](C2CCCC2)N(C)C(=O)C2(CCCC2)NC(=O)[C@@H]2CCCN2C(=O)[C@H](CCc2ccc(C(F)(F)F)c(Cl)c2)NC(=O)CN(C)C(=O)[C@H](Cc2ccc(C)cc2)N(CCC(F)(F)F)C(=O)[C@@H]2CCN2C(=O)[C@H](C)N(C)C1=O [PP0091] ([NMeL]I[NMeA][Aze][X42][Sar][hPhe(3-Cl-4-CF3)]P[Ac5c][NMeGly(cPent)][NMeD]-Morpholide; lactam N-11) | 8.39 | B (a compound having 3 or more and less than 10 is denoted as B) | C (A compound having a KD ratio of 0.1 or more and less than 3 is denoted as C) |
| CC[C@H](C)[C@@H]1NC(=O)[C@H](CC(C)C)N(C)C(=O)C[C@@H](C(=O)N2CCOCC2)N(C)C(=O)[C@H](C2CCCC2)N(C)C(=O)C2(CCCC2)NC(=O)[C@@H]2CCCN2C(=O)[C@H](CCc2ccc(C(F)(F)F)c(Cl)c2)NC(=O)CN(C)C(=O)[C@H](Cc2ccc(C)cc2)N(CCCOC)C(=O)[C@@H]2CCN2C(=O)[C@H](C)N(C)C1=O [PP0093] ([NMeL]I[NMeA][Aze][X27][Sar][hPhe(3-Cl-4-CF3)]P[Ac5c][NMeGly(cPent)][NMeD]-Morpholide; lactam N-11) | 8.66 | B (a compound having 3 or more and less than 10 is denoted as B) | C (A compound having a KD ratio of 0.1 or more and less than 3 is denoted as C) |

Continued, in another order:

| pIC50 [1] | SMILES | HRAS /KRAS (HRAS wild-type protein) | NRAS /KRAS [2] |
| --- | --- | --- | --- |
| 7.58 | CCCN1C(=O)CN(C)C(=O)CN(C)C(=O)[C@H]([C@@H](C)CC)NC(=O)[C@H](CC(C)C)N(C)C(=O)C[C@@H](C(=O)N2CCOCC2)N(C)C(=O)[C@H](C2CCCC2)N(C)C(=O)C2(CCCC2)NC(=O)[C@@H]2CCCN2C(=O)[C@H](CCc2ccc(C(F)(F)F)c(Cl)c2)NC(=O)CN(CC)C(=O)[C@@H]1Cc1ccc(C)cc1 [PP0066] ([NMeL]I[Sar][Sar][NPrPhe(4-Me)][NEtG][hPhe(3-Cl-4-CF3)]P[Ac5c][NMeGly(cPent)][NMeD]-Morpholide; lactam N-11) | C (A compound having a KD ratio of 0.1 or more and less than 3 is denoted as C) | B (a compound having 3 or more and less than 10 is denoted as B) |
| 7.40 | CCCN1C(=O)CN(CC)C(=O)CN(C)C(=O)[C@H]([C@@H](C)CC)NC(=O)[C@H](CC(C)C)N(C)C(=O)C[C@@H](C(=O)N2CCOCC2)N(C)C(=O)[C@H](C2CCCC2)N(C)C(=O)C2(CCCC2)NC(=O)[C@@H]2CCCN2C(=O)[C@H](CCc2ccc(C(F)(F)F)c(Cl)c2)NC(=O)CN(CC)C(=O)[C@@H]1Cc1ccc(C)cc1 [PP0069] ([NMeL]I[Sar][NEtG][NPrPhe(4-Me)][NEtG][hPhe(3-Cl-4-CF3)]P[Ac5c][NMeGly(cPent)][NMeD]-Morpholide; lactam N-11) | C (A compound having a KD ratio of 0.1 or more and less than 3 is denoted as C) | C (A compound having a KD ratio of 0.1 or more and less than 3 is denoted as C) |
| 8.43 | CC[C@H](C)[C@@H]1NC(=O)[C@H](CC(C)C)N(C)C(=O)C[C@@H](C(=O)N2CCOCC2)N(C)C(=O)[C@H](C2CCCC2)N(C)C(=O)C2(CCCC2)NC(=O)[C@@H]2CCCN2C(=O)[C@H](CCc2ccc(C(F)(F)F)c(Cl)c2)NC(=O)CN(C)C(=O)[C@H](Cc2ccc(C)cc2)N(CCOC)C(=O)[C@@H]2CCN2C(=O)[C@H](C)N(C)C1=O [PP0092] ([NMeL]I[NMeA][Aze][X14][Sar][hPhe(3-Cl-4-CF3)]P[Ac5c][NMeGly(cPent)][NMeD]-Morpholide; lactam N-11) | C (A compound having a KD ratio of 0.1 or more and less than 3 is denoted as C) | C (A compound having a KD ratio of 0.1 or more and less than 3 is denoted as C) |
| 7.74 | CC[C@H](C)[C@@H]1NC(=O)[C@H](CC(C)C)N(C)C(=O)C[C@@H](C(=O)N2CCOCC2)N(C)C(=O)[C@H](C2CCCC2)N(C)C(=O)C2(CCCC2)NC(=O)[C@@H]2CCCN2C(=O)[C@H](CCc2ccc(C(F)(F)F)c(Cl)c2)NC(=O)CN(C)C(=O)[C@H](Cc2ccc(C)cc2)N(CC2CCC2)C(=O)CN(C)C(=O)CN(C)C1=O [PP0095] ([NMeL]I[Sar][Sar][X44][Sar][hPhe(3-Cl-4-CF3)]P[Ac5c][NMeGly(cPent)][NMeD]-Morpholide; lactam N-11) | C (A compound having a KD ratio of 0.1 or more and less than 3 is denoted as C) | C (A compound having a KD ratio of 0.1 or more and less than 3 is denoted as C) |
| 7.16 | CC[C@H](C)[C@@H]1NC(=O)[C@H](CC(C)C)N(C)C(=O)C[C@@H](C(=O)N2CCOCC2)N(C)C(=O)[C@H](C2CCCC2)N(C)C(=O)C2(CCCC2)NC(=O)[C@@H]2CCCN2C(=O)[C@H](CCc2ccc(C(F)(F)F)c(Cl)c2)NC(=O)CN(C)C(=O)[C@H](Cc2ccc(C)cc2)N(CC2CCCC2)C(=O)CN(C)C(=O)CN(C)C1=O [PP0096] ([NMeL]I[Sar][Sar][X32][Sar][hPhe(3-Cl-4-CF3)]P[Ac5c][NMeGly(cPent)][NMeD]-Morpholide; lactam N-11) | C (A compound having a KD ratio of 0.1 or more and less than 3 is denoted as C) | C (A compound having a KD ratio of 0.1 or more and less than 3 is denoted as C) |
